Test results reported in patent US11840528B2 (Hoffmann-La Roche Inc., priority 2018, dated 2023).

What was measured:
[1] = biological target: T1, h-GABA-A α5β3γ2 (Homo sapiens, UniProt P18507+P31644); experiment: Two-electrode voltage clamp electrophysiology in Xenopus laevis oocytes expressing GABAA receptors, modulation of GABA EC20 current; format: cell-based; parameters: host or cells: Xenopus laevis oocytes micro-injected with RNA transcripts of the subunits; conditions: Table 1; for Efficacy (GABA) %: % modulation of GABA EC20 = 100*(Fold increase-1); for Fold increase h-GABA-A α5β3γ2 oocyte: test compound at approx. 30 fold its Ki, GABA at EC20
Method: Xenopus laevis oocytes at maturation stages V-VI were used for the expression of cloned mRNA encoding GABAA receptor subunits. Oocytes ready for RNA micro-injection were bought from Ecocyte, Castrop-Rauxel, Germany and stored in modified Barth's medium (composition in mM: NaCl 88, KCl 1, NaHCO32.4, HEPES 10, MgSO4 0.82, CaNO3 0.33, CaCl2 0.33, pH=7.5) at 20° C. until the experiment.
Oocytes were plated in 96-well plates to be used in an automated instrument (Robo-ocyte, MultiChannelSystems, Reutlingen, Germany) for microinjection and electrophysiological recordings. Approximately 50 nl of an aqueous solution containing the RNA transcripts for the subunits of the desired GABAA receptor was injected into each oocyte. RNA concentrations ranged between 0.3 and 16 ng/μl/subunit and were adjusted in pilot experiments to obtain GABA responses of a suitable size and a maximal effect of the reference modulator, Beta-CCM (β-CCM), a betacarboline negative allosteric modulator (NAM) at the GABAA receptor benzodiazepine (BZD) binding site or Midazolam, a benzodiazepine positive allosteric modulator (PAM) at the GABAA receptor benzodiazepine (BZD) binding site. The concentration of the γ2 subunit encoding RNA usually was 5- to 10-fold higher than the RNAs encoding the other subunits. Oocytes were kept in modified Barth's medium (composition in mM: NaCl 88, KCl 1, NaHCO3 4, HEPES 10, MgSO4 0.82, CaNO3 0.33, CaCl2) 0.33, pH=7.5) at 20° C. until the experiment.
Electrophysiological experiments were performed on days 3 to 5 after the micro-injection of mRNA. During the experiment the oocytes were constantly superfused by a solution containing (in mM) NaCl 90, KCl 1, HEPES 5, MgCl2 1, CaCl2) 1 (pH 7.4). Oocytes were impaled by two glass microelectrodes (resistance: 0.4 MΩ) which were filled with a solution containing KCl 1M+K-acetate 1.5 M and voltage-clamped to −80 mV. The recordings were performed at room temperature using the Roboocyte two-electrode voltage clamp system (Multichannelsystem). After an initial equilibration period of 1.5 min GABA was added for 1.5 min at a concentration evoking approximately 20% of a maximal current response (EC20). After another rest interval of 2.5 min GABA was again added evoking a response of similar amplitude and shape. 0.5 min after the onset of this second GABA application the test compound, at a concentration corresponding to approximatively 30 fold its Ki, was added while GABA was still present. Current traces were recorded at a digitization rate of 10 Hz during and shortly before and after the GABA application.
Each compound and concentration was tested on at least 3 oocytes. Different oocytes were used for different compound concentrations. β-CCM, a negative allosteric modulator, or Midazolam, a positive allosteric modulators, were tested on a few (3-6) oocytes on each 96-well plate for a positive control at a maximally effective. β-CCM inhibited the GABA-evoked current by approximatively 50% (Fold increase ˜0.5), while Midazolam potentiated the GABA-induced current by approximatively 150% (Fold increase ˜2.5).
For the analysis, the digitized current traces of the first and second GABA response were superimposed and, if necessary, rescaled to equal maximal amplitudes. The ratio between the two responses during the time interval of test compound application was calculated point by point. The extremum of the resulting “ratio trace” was taken as the efficacy (“Fold increase”) of the compound expressed as “% modulation of GABA EC20” (100*(Fold increase-1)).

[2] = biological target: T1, h-GABA-A α5β3γ2; experiment: [3H]flumazenil competition binding assay, membranes of HEK293 cells expressing GABAA receptors; conditions: displacement of [3H]-Flumazenil 0.5 nM, HEK293 cells expressing human receptors, mean of two determinations; Table 1
Method: The affinity of compounds at GABAA receptor subtypes was measured by competition for [3H]flumazenil (85 Ci/mmol; Roche) binding to HEK293 cells expressing rat (stably transfected) or human (transiently transfected) receptors of composition α1β3γ2, α2β3γ2, α3β3γ2 and α5β3γ2.
Cell pellets were suspended in Krebs-tris buffer (4.8 mM KCl, 1.2 mM CaCl2), 1.2 mM MgCl2, 120 mM NaCl, 15 mM Tris; pH 7.5; binding assay buffer), homogenized by polytron for ca. 20 sec on ice and centrifuged for 60 min at 4° C. (50000 g; Sorvall, rotor: SM24=20000 rpm). The cell pellets were resuspended in Krebs-tris buffer and homogenized by polytron for ca. 15 sec on ice. Protein was measured (Bradford method, Bio-Rad) and aliquots of 1 mL were prepared and stored at −80° C.
Assays were incubated to equilibrium for 1 hour at 4° C. and harvested onto GF/C uni-filters (Packard) by filtration using a Packard harvester and washing with ice-cold wash buffer (50 mM Tris; pH 7.5). After drying, filter-retained radioactivity was detected by liquid scintillation counting. Ki values were calculated using Excel-Fit (Microsoft) and are the means of two determinations.

| SMILES | Efficacy (GABA) % [1] [%] | Fold increase h-GABA-A α5β3γ2 oocyte [1] | Ki [2] [nM] |
| --- | --- | --- | --- |
| Cc1onc(-c2ccc(F)cc2)c1Cn1ncc(N2C[C@@H](C)O[C@@H](C)C2)cc1=O [Example 12, 5-(cis-2,6-Dimethylmorpholino)-2-((3-(4-fluorophenyl)-5-methylisoxazol-4-yl)methyl)pyridazin-3(2H)-one] | 114 | 2.14 | 3.8 |
| Cc1onc(-c2ccc(Cl)cn2)c1Cn1ncc(N2C[C@@H](C)O[C@@H](C)C2)cc1=O [Example 13, 2-((3-(5-Chloropyridin-2-yl)-5-methylisoxazol-4-yl)methyl)-5-(cis-2,6-dimethylmorpholino)pyridazin-3(2H)-one] | 94 | 1.94 | 0.7 |
| C[C@@H]1CN(c2cnn(Cc3c(-c4ccc(Cl)cn4)noc3C3CC3)c(=O)c2)C[C@H](C)O1 [Example 14, 2-((3-(5-Chloropyridin-2-yl)-5-cyclopropylisoxazol-4-yl)methyl)-5-(cis-2,6-dimethylmorpholino)pyridazin-3(2H)-one] | 166 | 2.66 | 1.5 |
| Cc1onc(-c2ccc(F)cc2)c1Cn1ncc(N2CCN(C(=O)C3(C)CC3)CC2)cc1=O [Example 15, 2-((3-(4-Fluorophenyl)-5-methylisoxazol-4-yl)methyl)-5-(4-(1-methylcyclopropanecarbonyl)piperazin-1-yl)pyridazin-3(2H)-one] | 120 | 2.2 | 35.2 |
| Cc1onc(-c2ccc(Cl)cn2)c1Cn1ncc(N2CCN(C(=O)C3(C)CC3)CC2)cc1=O [Example 16, 2-((3-(5-Chloropyridin-2-yl)-5-methylisoxazol-4-yl)methyl)-5-(4-(1-methylcyclopropanecarbonyl)piperazin-1-yl)pyridazin-3(2H)-one] | 139 | 2.39 | 2.6 |
| Cc1ccc(-c2noc(C)c2Cn2ncc(N3CCOCC3)cc2=O)cn1 [Example 22, 2-[[5-methyl-3-(6-methyl-3-pyridyl)isoxazol-4-yl]methyl]-5-morpholino-pyridazin-3-one] | 166 | 2.66 | 3.2 |
| Cc1ccc(-c2noc(C)c2Cn2ncc(N3CCC(C(F)(F)F)CC3)cc2=O)cn1 [Example 24, 2-[[5-methyl-3-(6-methyl-3-pyridyl)isoxazol-4-yl]methyl]-5-[4-(trifluoromethyl)-1-piperidyl]pyridazin-3-one] | 203 | 3.03 | 14.6 |
| O=C(C1CC1)N1CCN(c2cnn(Cc3c(-c4ccc(Cl)cn4)noc3C3CC3)c(=O)c2)CC1 [Example 25, 2-((3-(5-Chloropyridin-2-yl)-5-cyclopropylisoxazol-4-yl)methyl)-5-(4-(cyclopropanecarbonyl)piperazin-1-yl)pyridazin-3(2H)-one] | 266 | 3.66 | 12.5 |
| CC1(C(=O)N2CCN(c3cnn(Cc4c(-c5ccc(Cl)cn5)noc4C4CC4)c(=O)c3)CC2)CC1 [Example 26, 2-((3-(5-Chloropyridin-2-yl)-5-cyclopropylisoxazol-4-yl)methyl)-5-(4-(1-methylcyclopropanecarbonyl)piperazin-1-yl)pyridazin-3(2H)-one] | 247 | 3.47 | 28.4 |
| Cc1ccc(-c2noc(C)c2Cn2ncc(N3CCC(C(=O)NC4CC4)CC3)cc2=O)cn1 [Example 27, N-cyclopropyl-1-[1-[[5-methyl-3-(6-methyl-3-pyridyl)isoxazol-4-yl]methyl]-6-oxo-pyridazin-4-yl]piperidine-4-carboxamide] | 100 | 2 | 14.2 |
| Cc1ccc(-c2noc(C)c2Cn2ncc(N3C[C@H]4CC[C@@H](C3)O4)cc2=O)cn1 [Example 28, 2-[[5-methyl-3-(6-methyl-3-pyridyl)isoxazol-4-yl]methyl]-5-[(1R,5S)-8-oxa-3-azabicyclo[3.2.1]octan-3-yl]pyridazin-3-one] | 136 | 2.36 | 0.6 |
| Cc1ccc(-c2noc(C)c2Cn2ncc(N3CCN(CC(F)(F)F)CC3)cc2=O)cn1 [Example 31, 2-[[5-methyl-3-(6-methyl-3-pyridyl)isoxazol-4-yl]methyl]-5-[4-(2,2,2-trifluoroethyl)piperazin-1-yl]pyridazin-3-one] | 145 | 2.45 | 13.5 |
| Cc1ccc(-c2nocc2Cn2ncc(N3C[C@@H](C)O[C@@H](C)C3)cc2=O)cn1 [Example 32, 5-(cis-2,6-dimethylmorpholin-4-yl)-2-[[3-(6-methyl-3-pyridyl)isoxazol-4-yl]methyl]pyridazin-3-one] | 288 | 3.88 | 12.7 |
| Cc1ccc(-c2noc(C)c2Cn2ncc(N3C4COCC3C4)cc2=O)cn1 [Example 33, 2-[[5-methyl-3-(6-methyl-3-pyridyl)isoxazol-4-yl]methyl]-5-(3-oxa-6-azabicyclo[3.1.1]heptan-6-yl)pyridazin-3-one] | 150 | 2.5 | 3.2 |
| Cc1ccc(-c2noc(C)c2Cn2ncc(N3CCC(C#N)CC3)cc2=O)cn1 [Example 34, 1-[1-[[5-methyl-3-(6-methyl-3-pyridyl)isoxazol-4-yl]methyl]-6-oxo-pyridazin-4-yl]piperidine-4-carbonitrile] | 222 | 3.22 | 4.3 |
| Cc1ccc(-c2noc(C)c2Cn2ncc(N3C4CCC3COC4)cc2=O)cn1 [Example 35, 2-[[5-methyl-3-(6-methyl-3-pyridyl)isoxazol-4-yl]methyl]-5-(3-oxa-8-azabicyclo[3.2.1]octan-8-yl)pyridazin-3-one] | 179 | 2.79 | 0.8 |
| Cc1ccc(-c2noc(C)c2Cn2ncc(N3CCN(C4CC4)CC3)cc2=O)cn1 [Example 36, 5-(4-cyclopropylpiperazin-1-yl)-2-[[5-methyl-3-(6-methyl-3-pyridyl)isoxazol-4-yl]methyl]pyridazin-3-one] | 145 | 2.45 | 13.8 |
| Cc1ccc(-c2noc(C)c2Cn2ncc(N3CC4(COC4)C3)cc2=O)cn1 [Example 38, 2-[[5-methyl-3-(6-methyl-3-pyridyl)isoxazol-4-yl]methyl]-5-(2-oxa-6-azaspiro[3.3]heptan-6-yl)pyridazin-3-one] | 181 | 2.81 | 38.4 |
